Measured values: ChEMBL document CHEMBL1201862, “PubChem BioAssay data set” (2004)
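Protocol summary: plate cells (96-well), add compound at 5 concentrations, incubate 48 h, interpolate endpoints linearly. At the GI50, growth is halved.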 Activity calls are given as the source filed them. Cut-off read from the data, not from the text of the source: active = GI50 up to about 1.1 µM and inactive = higher.

Key:
Test in all cases: NCI anticancer screen, dose series, 48 h
CCRF-CEM = tested on: CCRF-CEM
COLO 205 = tested on: COLO 205
HCT-15 = tested on: HCT-15
HOP-62 = tested on: HOP-62
HOP-92 = tested on: HOP-92
HT-29 = tested on: HT-29
IGROV-1 = tested on: IGROV-1
LOX IMVI = tested on: LOX IMVI
M14 = tested on: M14
NCI-H460 = tested on: NCI-H460
NCI/ADR-RES = tested on: NCI/ADR-RES
SF-268 = tested on: SF-268
SK-MEL-5 = tested on: SK-MEL-5
SK-OV-3 = tested on: SK-OV-3
SNB-19 = tested on: SNB-19
SW-620 = tested on: SW-620
U-251 = tested on: U-251
UACC-257 = tested on: UACC-257
UACC-62 = tested on: UACC-62
SF-295 = tested on: SF-295

In the case of `Clc1nc(-[n+]2ccc(-c3ccncc3)cc2)nc(Nc2ccccc2)c1Cl`, the GI50 (CCRF-CEM) is reported as 27.9 µM (inactive), the GI50 (COLO 205) is reported as > 100 µM (inactive) and the GI50 (HCT-15) is reported as over 100 µM. The GI50 (HOP-62) was > 100 µM (inactive), the GI50 (HOP-92) was > 100 µM (inactive) and the GI50 (HT-29) was > 100 µM (inactive). For the same compound, the GI50 (IGROV-1) was 59.7 µM (inactive), the GI50 (LOX IMVI) was 50.4 µM (inactive) and the GI50 (M14) was > 100 µM (inactive). The GI50 (NCI-H460) was > 100 µM (inactive), the GI50 (NCI/ADR-RES) was > 100 µM (inactive) and the GI50 (SF-268) was > 100 µM (inactive). The GI50 (SK-MEL-5) was > 100 µM (inactive), the GI50 (SK-OV-3) was > 100 µM (inactive) and the GI50 (SNB-19) was > 100 µM (inactive). For the same compound, the GI50 (SW-620) was 66.8 µM (inactive), the GI50 (U-251) was 70.5 µM (inactive) and the GI50 (UACC-257) was > 100 µM (inactive). For the same compound, the GI50 (UACC-62) was > 100 µM (inactive).
In the case of `CCCCCCCCCCCCSC(=S)c1c(C)[nH]n(CCCCCCCCCCCC)c1=O`, the GI50 (CCRF-CEM) is reported as 48.4 µM (inactive), the GI50 (COLO 205) is reported as > 100 µM (inactive) and the GI50 (HCT-15) is reported as 65.3 µM. For the same compound, the GI50 (HOP-62) was > 100 µM (inactive), the GI50 (HT-29) was 74.1 µM (inactive) and the GI50 (IGROV-1) was > 100 µM (inactive). For the same compound, the GI50 (LOX IMVI) was > 100 µM (inactive), the GI50 (M14) was > 10 µM (inactive) and the GI50 (NCI-H460) was 50.5 µM (inactive). The GI50 (SF-268) was 48.9 µM (inactive), the GI50 (SF-295) was > 100 µM (inactive) and the GI50 (SK-MEL-5) was > 100 µM (inactive). The GI50 (SK-OV-3) was > 100 µM (inactive), the GI50 (SNB-19) was > 100 µM (inactive) and the GI50 (SW-620) was 77.6 µM (inactive). The GI50 (U-251) was > 100 µM (inactive), the GI50 (UACC-257) was > 100 µM (inactive) and the GI50 (UACC-62) was > 100 µM (inactive).
With `CCOC(=O)/C(Cl)=C(\C)Nc1nc2c(ccc3ccccc32)s1` the GI50 (CCRF-CEM) was 7.87 µM (inactive), the GI50 (COLO 205) was 47.9 µM (inactive) and the GI50 (HCT-15) was 26.1 µM. For the same compound, the GI50 (HOP-62) was 37.9 µM (inactive), the GI50 (HT-29) was 45.3 µM (inactive) and the GI50 (IGROV-1) was > 100 µM (inactive). For the same compound, the GI50 (M14) was 33.2 µM (inactive), the GI50 (NCI-H460) was 22.5 µM (inactive) and the GI50 (NCI/ADR-RES) was > 100 µM (inactive). For the same compound, the GI50 (SF-268) was 90.2 µM (inactive), the GI50 (SF-295) was > 100 µM (inactive) and the GI50 (SK-MEL-5) was 31.2 µM (inactive). The GI50 (SK-OV-3) was > 100 µM (inactive), the GI50 (SNB-19) was > 100 µM (inactive) and the GI50 (SW-620) was 36.4 µM (inactive). The GI50 (U-251) was > 100 µM (inactive), the GI50 (UACC-257) was 91.8 µM (inactive) and the GI50 (UACC-62) was 41.9 µM (inactive).
In the case of `COC(=O)C(Cc1ccc2c(c1)OCO2)(NC(=O)c1ccccc1)P(=O)(OC)OC` (configuration not stated), the GI50 (CCRF-CEM) is reported as > 100 µM (inactive), the GI50 (COLO 205) is reported as > 100 µM (inactive) and the GI50 (HCT-15) is reported as over 100 µM. The GI50 (HOP-62) was > 100 µM (inactive), the GI50 (HOP-92) was > 100 µM (inactive) and the GI50 (HT-29) was > 100 µM (inactive). For the same compound, the GI50 (IGROV-1) was > 100 µM (inactive), the GI50 (LOX IMVI) was > 100 µM (inactive) and the GI50 (M14) was > 100 µM (inactive). The GI50 (NCI-H460) was > 100 µM (inactive), the GI50 (SF-268) was > 100 µM (inactive) and the GI50 (SF-295) was > 100 µM (inactive). The GI50 (SK-MEL-5) was > 100 µM (inactive), the GI50 (SK-OV-3) was > 100 µM (inactive) and the GI50 (SNB-19) was > 100 µM (inactive). For the same compound, the GI50 (SW-620) was > 100 µM (inactive), the GI50 (U-251) was > 100 µM (inactive) and the GI50 (UACC-257) was > 100 µM (inactive). For the same compound, the GI50 (UACC-62) was > 100 µM (inactive).
`Nc1nc(Cl)nc2c1ncn2C1CC(O)C(CO)O1` (configuration not stated) was tested, and the GI50 (CCRF-CEM) was 0.0713 µM (active), the GI50 (COLO 205) was 33.4 µM (inactive) and the GI50 (HCT-15) was 45.9 µM. The GI50 (HOP-62) was 0.33 µM (active), the GI50 (HOP-92) was 1.3 µM (inactive) and the GI50 (HT-29) was 19.3 µM (inactive). For the same compound, the GI50 (IGROV-1) was 81.8 µM (inactive), the GI50 (LOX IMVI) was 3.62 µM (inactive) and the GI50 (NCI-H460) was 7.28 µM (inactive). The GI50 (NCI/ADR-RES) was 0.103 µM (active), the GI50 (SF-268) was 26.4 µM (inactive) and the GI50 (SF-295) was 67.9 µM (inactive). The GI50 (SK-MEL-5) was 5.12 µM (inactive), the GI50 (SK-OV-3) was 52.7 µM (inactive) and the GI50 (SNB-19) was 1.47 µM (inactive). For the same compound, the GI50 (SW-620) was 23 µM (inactive), the GI50 (U-251) was 10.4 µM (inactive) and the GI50 (UACC-257) was 1.76 µM (inactive). For the same compound, the GI50 (UACC-62) was 0.463 µM (active).
For `C=C1CC(Cn2cc(Br)c(=O)[nH]c2=O)(c2ccc(Br)cc2)OC1=O` (configuration not stated), the GI50 (CCRF-CEM) was 0.614 µM (active), the GI50 (COLO 205) was 1.53 µM (inactive) and the GI50 (HCT-15) was 1.83 µM. The GI50 (HOP-62) was 14.5 µM (inactive), the GI50 (HOP-92) was 1.33 µM (inactive) and the GI50 (HT-29) was 2.3 µM (inactive). For the same compound, the GI50 (IGROV-1) was 1.89 µM (inactive), the GI50 (LOX IMVI) was 1.58 µM (inactive) and the GI50 (M14) was 1.59 µM (inactive). The GI50 (NCI-H460) was 14.1 µM (inactive), the GI50 (NCI/ADR-RES) was 2.59 µM (inactive) and the GI50 (SF-268) was 13.6 µM (inactive). For the same compound, the GI50 (SF-295) was 12.1 µM (inactive), the GI50 (SK-MEL-5) was 3.01 µM (inactive) and the GI50 (SK-OV-3) was 12.2 µM (inactive). The GI50 (SNB-19) was 15.8 µM (inactive), the GI50 (SW-620) was 1.49 µM (inactive) and the GI50 (U-251) was 13.3 µM (inactive). For the same compound, the GI50 (UACC-257) was 1.82 µM (inactive) and the GI50 (UACC-62) was 2.4 µM (inactive).
`C=C1C(=O)O[C@@H]2[C@H](O)[C@@H](C)[C@@H]3C=CC(=O)[C@@]3(C)[C@@H](OC(=O)/C(C)=C/C)[C@H]12` was tested, and the GI50 (CCRF-CEM) was 0.254 µM (active), the GI50 (COLO 205) was 0.344 µM (active) and the GI50 (HCT-15) was 0.377 µM. For the same compound, the GI50 (HOP-62) was 7.46 µM (inactive), the GI50 (HOP-92) was 0.548 µM (active) and the GI50 (HT-29) was 0.745 µM (active). The GI50 (IGROV-1) was 0.459 µM (active), the GI50 (LOX IMVI) was 0.869 µM (active) and the GI50 (NCI-H460) was 0.412 µM (active). The GI50 (NCI/ADR-RES) was 0.811 µM (active), the GI50 (SF-268) was 0.437 µM (active) and the GI50 (SF-295) was 3.75 µM (inactive). The GI50 (SK-MEL-5) was 1.18 µM (inactive), the GI50 (SK-OV-3) was 2.39 µM (inactive) and the GI50 (SNB-19) was 2.77 µM (inactive). For the same compound, the GI50 (SW-620) was 0.483 µM (active), the GI50 (U-251) was 0.733 µM (active) and the GI50 (UACC-257) was 0.718 µM (active). For the same compound, the GI50 (UACC-62) was 0.342 µM (active).
